For test [1], the system named is human platelet aggregation induced by ADP. The test can be described thus: Inhibition of human platelet aggregation induced by ADP. The test is classed as cell-based. Particulars: 3.2 × 10^-7 M, platelet rich plasma, ADP 2.5 μM, mean ± S.E. The procedure: i) Inhibition of human platelet aggregation induced by ADP
Isomer C obtained in Example 2.
Human blood was obtained from healthy volunteers and mixed with 1/10 volume of 3.8% sodium citrate, pH 7.4. The citrate blood was centrifuged at 150×g for 10 minutes and the platelet rich plasma (PRP) was removed. The remaining blood was centrifuged for a further 10 minutes at 1500×g to prepare the platelet poor plasma (PPP), which was used as a reference for platelet aggregation. Aggregation studies were carried out using HEMATRACER 801 (NBS, Japan), a 8 channel aggregometer. 25 μl sample solution and 225 μl of PRP were mixed and stirred at 1000 rpm for 2 minutes at 37° C. Aggregation was induced by ADP solution at the final concentration of 2.5 μM.

For test [2], the system named is mean arterial blood pressure. The test can be described thus: Effect on mean arterial blood pressure in conscious rats. To be noted: 3.2 mg/kg, orally, suspended in 0.5% methyl cellulose; conscious male Sprague-Dawley rats. The test is classed as in vivo. The procedure:
ii) Effect on mean arterial blood pressure in conscious rats
Sodium [3-[[(1S)-2-(4,5-diphenyloxazol-2-yl)-2-cyclohexen-1-yl]methyl]phenoxy]acetate
Male Sprague-Dawley rats, aged 8-9 weeks, were anesthetized with diethyl ether and a polyethylene cannula filled with heparin solution was inserted into the femoral artery of the rats to measure mean blood pressure. Mean blood pressure was measured with a pressure transducer and recorded on a polygraph. Two hours after operation, the test compound suspended in 0.5% methyl cellulose was administered orally in a volume of 5 ml/kg. Oral hypotensive effect of the test compound was expressed as the maximal decrease (R max). Briefly, R max was expressed as maximal % change compared to mean blood pressure prior to the administration of the test compound.

Consider `O=C(O)COc1cccc(CC2CCCCC2c2nc(-c3ccccc3)c(-c3ccccc3)o2)c1` (single isomer, unassigned) [Isomer C, cis- or trans-1-[(3-carboxymethoxyphenyl)methyl]-2-(4,5-diphenyloxazol-2-yl)cyclohexane], for which, in test [1], the inhibition at 0.32 µM amounted to 100 ± 0.4%.

Turning to `O=C(O)COc1cccc(C[C@@H]2CCCC=C2c2nc(-c3ccccc3)c(-c3ccccc3)o2)c1` [(+)-Sodium [3-[[(1S)-2-(4,5-diphenyloxazol-2-yl)-2-cyclohexen-1-yl]methyl]phenoxy] acetate], in test [2], the “R max (%): maximal % change (decrease) in mean blood pressure compared to that prior to administration” value came out at 31.3%.

(Values after patent US6025375A, “4,5-diaryloxazole derivatives” (Fujisawa Pharmaceutical Co., Ltd., priority 1993, dated 2000).)
